According to ChEMBL document CHEMBL4342409, “Recent advancements of 4-aminoquinazoline derivatives as kinase inhibitors and their applications in medicinal chemistry” (Eur J Med Chem, 2019):

Assays:
A549 = test: In vivo inhibition of neo-vascularisation in human A549 cells xenografted in athymic mouse at 50 mg/kg/day, po administered for 5 days measured after 24 hrs of last dose by light microscopy; type: functional
Human betaherpesvirus 5 = test: Antiviral activity against recombinant HCMV AD169 infected in human foreskin fibroblasts measured after 7 days by GFP-based multi-round replication assay relative to control; type: functional, organism-based; conditions: Human betaherpesvirus 5, AD169, 168 h
[1] = biological target: T1, Vascular endothelial growth factor receptor 2 (Homo sapiens, UniProt P35968); test: Inhibition of human recombinant GST-tagged VEGFR2 (catalytic domain 805 to 1356 residues) expressed in Sf9 insect cells incubated for 45 mins by Kinase-Glo assay
[2] = biological target: T1, Vascular endothelial growth factor receptor 2; test: Inhibition of VEGFR2 in human HUVEC assessed as reduction in cell proliferation at 10 uM incubated for 72 hrs by alamarBlue assay; type: cell-based
[3] = biological target: T2, Epidermal growth factor receptor (Homo sapiens, UniProt P00533)
Description: Inhibition of EGFR (unknown origin)

[4] = biological target: T1, Vascular endothelial growth factor receptor 2; test: Inhibition of VEGFR2 (unknown origin)
Plasmodium falciparum = test: Antimalarial activity against Plasmodium falciparum 3D7 infected in human erythrocytes after 72 hrs by SYBR Green1 dye based fluorescence assay relative to control; type: functional, organism-based; conditions: 3D7, 72 h
DU-145 = test: Antitumor activity against human DU145 cells xenografted in CB17 SCID model mouse assessed as inhibition of tumor growth at 25 mg/kg, po administered for 54 days; type: functional; design: scale not given: the % may be the effect or the level left
[5] = biological target: T3, Aurora kinase A (Homo sapiens) (UniProt O14965); test: Inhibition of Aurora A in human MCF7 cells relative to control; type: cell-based; conditions: concentration not given here
T3 sequence (whole entry): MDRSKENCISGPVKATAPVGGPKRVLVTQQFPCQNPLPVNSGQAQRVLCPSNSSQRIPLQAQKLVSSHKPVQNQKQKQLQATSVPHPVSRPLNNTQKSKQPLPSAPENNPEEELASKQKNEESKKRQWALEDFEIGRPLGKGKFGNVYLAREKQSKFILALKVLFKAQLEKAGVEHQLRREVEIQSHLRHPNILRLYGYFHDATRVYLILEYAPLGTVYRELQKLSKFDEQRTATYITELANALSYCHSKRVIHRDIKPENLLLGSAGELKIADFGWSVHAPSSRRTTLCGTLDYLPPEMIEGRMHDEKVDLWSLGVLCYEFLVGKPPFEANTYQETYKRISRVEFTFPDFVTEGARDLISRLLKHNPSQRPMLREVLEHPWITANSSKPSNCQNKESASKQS

[6] = biological target: Receptor tyrosine-protein kinase erbB-4 (Homo sapiens, UniProt Q15303); test: Inhibition of HER4 (unknown origin)
[7] = biological target: T4, Proto-oncogene tyrosine-protein kinase Src (Homo sapiens, UniProt P12931); test: Inhibition of SRC (unknown origin)
[8] = biological target: Vascular endothelial growth factor receptor 3 (Homo sapiens, UniProt P35916); test: Inhibition of VEGFR3 (unknown origin)
[9] = Cytotoxicity against human EC1 cells assessed as reduction in cell growth at 2 nM incubated for 48 and 72 hrs by MTT assay; type: functional
[10] = Cytotoxicity against human HKESC1 cells assessed as reduction in cell growth at 2 nM incubated for 48 and 72 hrs by MTT assay; type: functional
[11] = Cytotoxicity against human HKESC2 cells assessed as reduction in cell growth at 2 nM incubated for 48 and 72 hrs by MTT assay; type: functional
[12] = Cytotoxicity against human KYSE10 cells assessed as reduction in cell growth at 2 nM incubated for 48 and 72 hrs by MTT assay; type: functional
[13] = Cytotoxicity against human SLMT1 cells assessed as reduction in cell growth at 2 nM incubated for 48 and 72 hrs by MTT assay; type: functional
[14] = Cytotoxicity against human Embryonic stem cells assessed as reduction in cell growth at 2 nM incubated for 48 and 72 hrs by MTT assay; type: functional
[15] = Antitumor activity against rat FRE-erbB2 cells xenografted in CD-1 mouse assessed as tumor growth inhibition at 50 mg/kg, po after 1 hr by ELISA relative to control; type: functional; conditions: read-out: TGI
[16] = biological target: T4, Proto-oncogene tyrosine-protein kinase Src; test: Inhibition of human recombinant Src expressed in baculovirus infected Sf9 insect cells assessed as reduction in phosphorylation of polyglutamic acid/tyrosine incubated for 15 mins by ELISA
[17] = biological target: Epidermal growth factor receptor (Homo sapiens, UniProt P00533, L858R/T790M); test: Inhibition of human recombinant GST-tagged EGFR L858R/T790M mutant (catalytic domain 695 to end) expressed in baculovirus-infected Sf9 cells assessed as reduction in phosphorylation of polyglutamic acid/tyrosine incubated for 60 mins by ADP-Glo assay
[18] = biological target: T2, Epidermal growth factor receptor; test: Inhibition of human recombinant GST-tagged EGFR (catalytic domain 695 to end) expressed in baculovirus-infected Sf9 cells assessed as reduction in phosphorylation of polyglutamic acid/tyrosine incubated for 60 mins by ADP-Glo assay
[19] = Antiproliferative activity against human NHBE cells assessed as reduction in cell viability incubated for 72 hrs by MTT assay; type: cell-based
[20] = biological target: Epidermal growth factor receptor (Homo sapiens, UniProt P00533, T790M); test: Inhibition of EGFR T790M mutant (unknown origin)

T1 sequence (P35968 whole entry, the tested form may be a part): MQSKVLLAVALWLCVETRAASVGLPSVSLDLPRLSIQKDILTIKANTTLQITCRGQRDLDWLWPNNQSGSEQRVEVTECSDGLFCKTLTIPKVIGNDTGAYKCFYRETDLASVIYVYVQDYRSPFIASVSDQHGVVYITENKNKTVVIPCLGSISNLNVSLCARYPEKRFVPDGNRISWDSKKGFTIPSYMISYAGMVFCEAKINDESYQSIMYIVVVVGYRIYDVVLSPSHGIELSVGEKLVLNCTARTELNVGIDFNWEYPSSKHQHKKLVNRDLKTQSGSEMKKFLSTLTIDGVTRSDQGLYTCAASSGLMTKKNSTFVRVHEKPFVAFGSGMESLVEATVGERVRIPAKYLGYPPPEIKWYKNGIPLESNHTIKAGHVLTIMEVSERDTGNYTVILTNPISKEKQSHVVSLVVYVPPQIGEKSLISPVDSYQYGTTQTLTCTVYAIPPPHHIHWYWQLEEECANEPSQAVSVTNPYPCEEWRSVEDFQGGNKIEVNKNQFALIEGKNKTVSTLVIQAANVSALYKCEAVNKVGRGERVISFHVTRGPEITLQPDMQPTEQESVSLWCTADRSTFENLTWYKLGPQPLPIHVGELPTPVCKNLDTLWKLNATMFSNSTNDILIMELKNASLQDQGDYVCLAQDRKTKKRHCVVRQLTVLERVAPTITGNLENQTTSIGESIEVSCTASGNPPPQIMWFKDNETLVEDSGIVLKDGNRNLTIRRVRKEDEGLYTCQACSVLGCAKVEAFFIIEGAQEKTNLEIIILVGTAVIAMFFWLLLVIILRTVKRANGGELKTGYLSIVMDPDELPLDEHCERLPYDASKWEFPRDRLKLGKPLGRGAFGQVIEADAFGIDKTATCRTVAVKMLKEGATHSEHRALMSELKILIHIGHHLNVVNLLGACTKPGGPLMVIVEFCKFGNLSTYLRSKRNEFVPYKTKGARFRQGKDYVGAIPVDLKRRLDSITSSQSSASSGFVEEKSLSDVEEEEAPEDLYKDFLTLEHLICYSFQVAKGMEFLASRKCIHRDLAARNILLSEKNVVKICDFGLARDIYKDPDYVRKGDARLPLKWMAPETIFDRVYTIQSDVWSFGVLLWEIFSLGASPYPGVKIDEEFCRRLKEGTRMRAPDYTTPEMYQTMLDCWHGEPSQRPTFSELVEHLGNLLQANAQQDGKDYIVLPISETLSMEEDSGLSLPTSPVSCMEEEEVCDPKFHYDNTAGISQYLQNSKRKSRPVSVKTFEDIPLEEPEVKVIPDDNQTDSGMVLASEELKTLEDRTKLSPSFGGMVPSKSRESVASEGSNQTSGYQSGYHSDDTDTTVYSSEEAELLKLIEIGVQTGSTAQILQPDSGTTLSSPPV
T2 sequence (P00533 whole entry): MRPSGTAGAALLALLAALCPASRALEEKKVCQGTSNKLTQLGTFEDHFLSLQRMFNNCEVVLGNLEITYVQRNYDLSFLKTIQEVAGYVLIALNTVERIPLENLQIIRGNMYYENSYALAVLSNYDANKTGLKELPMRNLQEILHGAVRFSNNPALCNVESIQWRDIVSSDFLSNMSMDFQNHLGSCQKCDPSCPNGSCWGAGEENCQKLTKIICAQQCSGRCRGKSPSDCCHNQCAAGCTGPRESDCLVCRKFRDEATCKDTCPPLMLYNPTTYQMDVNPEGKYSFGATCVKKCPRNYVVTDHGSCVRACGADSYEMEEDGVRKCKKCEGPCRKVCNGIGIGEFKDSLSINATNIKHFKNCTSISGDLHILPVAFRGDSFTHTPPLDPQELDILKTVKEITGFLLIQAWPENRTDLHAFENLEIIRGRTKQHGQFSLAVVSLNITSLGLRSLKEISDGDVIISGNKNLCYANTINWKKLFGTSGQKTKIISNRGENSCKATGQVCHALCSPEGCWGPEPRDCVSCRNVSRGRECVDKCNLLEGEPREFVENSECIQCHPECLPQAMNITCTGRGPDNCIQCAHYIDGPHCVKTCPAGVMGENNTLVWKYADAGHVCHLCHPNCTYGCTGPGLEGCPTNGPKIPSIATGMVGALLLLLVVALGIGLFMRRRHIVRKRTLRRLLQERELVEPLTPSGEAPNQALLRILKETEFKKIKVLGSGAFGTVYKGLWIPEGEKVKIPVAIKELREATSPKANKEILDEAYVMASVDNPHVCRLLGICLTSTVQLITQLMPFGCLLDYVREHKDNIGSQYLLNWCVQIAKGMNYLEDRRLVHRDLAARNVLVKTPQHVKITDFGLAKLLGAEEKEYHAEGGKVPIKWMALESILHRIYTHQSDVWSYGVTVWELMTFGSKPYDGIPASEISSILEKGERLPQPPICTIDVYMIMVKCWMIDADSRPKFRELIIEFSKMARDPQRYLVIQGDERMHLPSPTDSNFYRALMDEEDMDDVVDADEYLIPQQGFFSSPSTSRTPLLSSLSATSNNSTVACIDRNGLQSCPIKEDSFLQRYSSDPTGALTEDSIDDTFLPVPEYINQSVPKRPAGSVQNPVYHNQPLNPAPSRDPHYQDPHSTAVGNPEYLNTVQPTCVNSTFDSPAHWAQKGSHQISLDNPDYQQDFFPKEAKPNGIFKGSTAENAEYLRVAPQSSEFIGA
T4 sequence (P12931 2-536 limits assumed): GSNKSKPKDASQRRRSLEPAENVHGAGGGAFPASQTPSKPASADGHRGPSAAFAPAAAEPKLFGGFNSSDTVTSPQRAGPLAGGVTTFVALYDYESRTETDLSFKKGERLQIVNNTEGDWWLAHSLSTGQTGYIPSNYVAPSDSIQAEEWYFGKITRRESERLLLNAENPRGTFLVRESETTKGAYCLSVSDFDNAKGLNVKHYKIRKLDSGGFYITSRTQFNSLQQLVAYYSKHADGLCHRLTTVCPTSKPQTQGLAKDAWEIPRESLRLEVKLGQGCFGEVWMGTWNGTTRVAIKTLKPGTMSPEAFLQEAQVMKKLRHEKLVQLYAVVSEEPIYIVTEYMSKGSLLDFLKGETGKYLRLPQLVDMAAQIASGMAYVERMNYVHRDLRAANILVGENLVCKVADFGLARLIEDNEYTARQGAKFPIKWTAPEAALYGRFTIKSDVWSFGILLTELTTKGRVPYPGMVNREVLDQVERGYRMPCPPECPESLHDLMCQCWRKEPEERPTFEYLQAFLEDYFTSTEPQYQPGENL
Receptor tyrosine-protein kinase erbB-4, sequence (Q15303 whole entry): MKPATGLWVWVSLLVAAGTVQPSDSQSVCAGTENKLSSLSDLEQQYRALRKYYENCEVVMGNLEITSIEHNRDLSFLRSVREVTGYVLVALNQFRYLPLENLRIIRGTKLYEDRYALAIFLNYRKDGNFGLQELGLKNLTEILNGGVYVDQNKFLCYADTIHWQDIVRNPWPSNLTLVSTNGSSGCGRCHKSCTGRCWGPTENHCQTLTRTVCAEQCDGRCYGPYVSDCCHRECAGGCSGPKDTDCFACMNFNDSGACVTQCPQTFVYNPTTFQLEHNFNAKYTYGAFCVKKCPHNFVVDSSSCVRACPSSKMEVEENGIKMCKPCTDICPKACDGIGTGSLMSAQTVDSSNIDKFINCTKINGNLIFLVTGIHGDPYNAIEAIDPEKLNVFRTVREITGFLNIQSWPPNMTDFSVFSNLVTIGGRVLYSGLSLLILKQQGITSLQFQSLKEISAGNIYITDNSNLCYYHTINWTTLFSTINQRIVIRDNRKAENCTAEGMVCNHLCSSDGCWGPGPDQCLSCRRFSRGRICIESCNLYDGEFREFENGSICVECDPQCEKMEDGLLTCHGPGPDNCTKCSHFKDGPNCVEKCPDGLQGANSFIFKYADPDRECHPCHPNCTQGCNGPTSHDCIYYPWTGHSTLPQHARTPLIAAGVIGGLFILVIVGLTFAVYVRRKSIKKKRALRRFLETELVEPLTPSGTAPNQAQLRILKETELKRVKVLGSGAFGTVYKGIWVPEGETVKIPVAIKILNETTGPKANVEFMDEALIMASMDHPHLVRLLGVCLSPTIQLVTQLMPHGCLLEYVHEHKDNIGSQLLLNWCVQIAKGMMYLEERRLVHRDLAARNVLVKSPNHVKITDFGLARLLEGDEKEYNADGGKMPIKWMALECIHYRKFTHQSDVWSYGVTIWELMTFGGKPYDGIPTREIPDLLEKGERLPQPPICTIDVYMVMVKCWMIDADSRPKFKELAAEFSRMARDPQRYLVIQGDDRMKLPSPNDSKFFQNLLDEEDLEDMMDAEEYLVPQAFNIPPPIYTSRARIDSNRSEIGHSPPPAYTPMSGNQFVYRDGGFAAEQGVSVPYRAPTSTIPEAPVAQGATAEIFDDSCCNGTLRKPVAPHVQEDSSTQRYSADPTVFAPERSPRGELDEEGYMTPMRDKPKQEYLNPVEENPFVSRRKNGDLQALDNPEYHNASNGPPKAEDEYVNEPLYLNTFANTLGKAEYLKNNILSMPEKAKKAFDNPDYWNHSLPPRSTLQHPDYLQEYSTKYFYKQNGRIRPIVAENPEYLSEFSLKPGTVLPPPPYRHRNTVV

In the case of COc1cc2/c(=N/c3ccc(Br)cc3F)nc[nH]c2cc1OCC1CCN(C)CC1 [VANDETANIB], the inhibition in vivo at 50 mg/kg/day (A549) is reported as 63%.
C[C@H]1[C@@H](CC(=O)Nc2ccc3ncnc(Nc4ccc(Cl)c(Cl)c4)c3c2)O[C@@H]2O[C@@]3(C)CC[C@H]4[C@H](C)CC[C@@H]1[C@@]24OO3 showed an EC50 (Human betaherpesvirus 5) of 150 to 210 µM.
COc1cc2ncnc(-n3ncc4cc(NC(=O)Nc5ccc(C)c(Cl)c5)ccc43)c2cc1OC showed an IC50 [1] of 0.005 µM and an inhibition [2] of 80 to 99.6%.
For C=CC(=O)Nc1cc2c(Nc3ccc(Br)cc3F)ncnc2cc1OCCCC(=O)CN(C)C, the IC50 [3] was 0.002 µM and the IC50 [4] was 0.103 µM.
For C[C@H]1[C@H](OC(=O)CCC(=O)Nc2ccc3ncnc(Nc4ccc(Cl)c(Cl)c4)c3c2)O[C@@H]2O[C@@]3(C)CC[C@H]4[C@H](C)CC[C@@H]1[C@@]24OO3, the EC50 (Plasmodium falciparum) was 0.0014 µM and the EC50 (Human betaherpesvirus 5) was 150 to 210 µM.
CN1CCN(CCOc2cc(OC3CCOCC3)c3c(Nc4c(Cl)ccc5c4OCO5)ncnc3c2)CC1 [SARACATINIB] showed an Activity (DU-145) of 45%.
With COc1cc2c(Nc3ccc(C(=O)Nc4ccccc4)cc3)ncnc2cc1O the inhibition [5] was 60%.
In the case of C[C@@H]1COC(Nc2ccc3ncnc(Nc4ccc(OCc5nccs5)c(Cl)c4)c3c2)=N1 [VARLITINIB], the IC50 [6] is reported as 0.004 µM.
Molecule COc1cc2ncnc3c2cc1OCCCCCN(C)Cc1ccc(Br)cc1N3 [JNJ-26483327] has an IC50 [3] of less than 0.01 µM, an IC50 [6] of 0.011 to 0.099 µM and an IC50 [7] of 0.011 to 0.099 µM. The IC50 [8] was 0.011 to 0.099 µM.
With CN(C)C/C=C/C(=O)Nc1cc2c(Nc3ccc(F)c(Cl)c3)ncnc2cc1O[C@H]1CCOC1 [AFATINIB] the inhibition at 0.002 µM [9] was greater than 95%, the inhibition at 0.002 µM [10] was greater than 95% and the inhibition at 0.002 µM [11] was greater than 95%. For the same molecule, the inhibition at 0.002 µM [12] was greater than 95%, the inhibition at 0.002 µM [13] was greater than 95% and the inhibition at 0.002 µM [14] was greater than 95%.
For COCC(=O)NC/C=C/c1ccc2ncnc(Nc3ccc(Oc4ccc(C)nc4)c(C)c3)c2c1 [CP-724714], the inhibition in vivo at 50 mg/kg [15] was 50%.
With COc1ccc(Cl)c(Nc2ncnc3cc(OCC4CCN(C)CC4)c(OC)cc23)c1 [AZM-475271] the IC50 [16] was 0.005 µM.
Molecule C=CC(=O)Nc1ccc(Nc2ncnc3cc(OC)c(OCCN4CCOCC4)cc23)cc1 has an IC50 [3] of 0.105 µM, an IC50 [17] of 0.0043 µM and an IC50 [18] of 0.105 µM. The IC50 [19] was greater than 34 µM and the IC50 [20] was 0.0043 µM.
